row,Structure (SMILES),melting point [°C]
1,O=C1OC(CCO)c2ccccc21 (stereo not given),122 to 124
2,CCOC(=O)C1=NN(c2ccc(Cl)cc2)C(c2ccc(Cl)cc2)C1 (stereo not given),128 to 130
3,CCn1cc(-c2sc(NC(=O)c3ccncc3)nc2-c2ccco2)ccc1=O,285 to 289
4,Cc1nc(NC(CO)C(C)C)c2c(n1)c(C)nn2C (stereo not given),166 to 168
5,CCOC(=O)c1cc(Cl)n2nc(C)nc2n1,134 to 136
6,CCCCCCCCCCCCCCCCNc1ccc(C(=O)NS(=O)(=O)c2ccc(N)cc2)cc1,193 to 196
7,NC(=S)N(c1ccccc1)c1cccc(NNC=O)c1,143 to 145
8,CCCCc1nc(O)cc(CCl)n1,102 to 104
9,Cc1nc(N2CCC(Cc3ccc(C(F)(F)F)cc3)C2=O)sc1C(=O)NCc1ccccc1 (stereo not given),174 to 175
10,Cc1ccc2c(c1)[C@@]1(C)Cc3ccccc3[C@@]1(C)N2 (relative stereo),208 to 212
11,CCn1c(C(C)N(C)S(=O)(=O)c2ccc(Cl)c(Cl)c2)cnc1Oc1ccc(Cl)cc1 (stereo not given),142 to 144
12,CCCCCCCCCCCCc1cc2cc(C(=O)OCC)ccc2[nH]1,77 to 79
13,O=C(c1ccc(O)cc1)N1CCN(CC(O)Cn2c3ccccc3c3ccccc32)CC1 (stereo not given),184
14,CC(C)(C)OC(=O)N[C@@H]1C(=O)N2C(C(=O)OC(c3ccccc3)c3ccccc3)=C(/C=C3\CCN(CC4CC4)C3=O)CS[C@H]12,175 to 180
15,CCN1c2ncc(COc3cccnc3)cc2C(=O)N(C)c2ccc(Cl)nc21,183 to 184
16,CCC1(C)CC2(NC(=O)N(Cc3ccc(CN4C(=O)NC5(CC(C)(CC)NC(C)(CC)C5C)C4=O)cc3)C2=O)C(C)C(C)(CC)N1 (stereo not given),272 to 274
17,OC(CCl)(Cc1ccccc1Cl)c1ccc(Cl)cc1 (stereo not given),64 to 69
18,O=C(O)CCC(=O)c1ccc(-c2ccc(Cl)cc2)cc1,184 to 185
19,NOCc1ccc2c(c1)-c1n[nH]c(=O)c3cccc(c13)O2,294 to 296
20,COc1cc2c(cc1OC)CC(=O)NC=C2,234 to 237
21,CCN[C@@H]1CCCC[C@H]1NS(=O)(=O)c1ccc(C)cc1 (relative stereo),112 to 114
22,CCOCC1(C)CCCOc2cc(C#Cc3ccc(C(=O)O)cc3)ccc21 (stereo not given),170 to 171
23,Cc1cc(Cc2cnc(NCCSCc3ncccc3Br)[nH]c2=O)cnc1C,105 to 107
24,Nc1cc(Cl)cc(Cl)c1C(=O)NCc1cccc(Cl)c1,167 to 171
25,O=C(O)C=Cc1ccc(Cn2ccnc2)c(Cl)c1,227 to 229

row,Structure (SMILES),melting point [°C]
1,CC(C)OC(=O)Cn1c(=O)n(C)c(=O)n(-c2cc(N=c3oc(=O)n4n3CCCC4)c(F)cc2Cl)c1=O,115 to 120
2,CCOC(=O)N1CCN(C(=O)C2CCC(=O)N2)CC1 (stereo not given),147 to 148
3,C#Cc1cn(C2CC(O)C(COC(=O)C(C)(C)C)O2)c(=O)[nH]c1=O (stereo not given),64 to 66
4,CC(C)c1ccc2ncn(/C=C/C(=O)NCCNCc3cccnc3)c(=O)c2c1,121 to 124
5,Cc1ccccc1OCC(O)CN1CCC(N2CCCNC2=O)CC1 (stereo not given),145 to 147
6,COC(=O)c1ncsc1S(=O)(=O)Cl,94 to 97.5
7,N#Cc1ccccc1OC(=O)CCC1CCN(C(=N)N)CC1,160 to 162
8,CC1CC(=O)c2c(C(=O)O)c[nH]c2C1 (stereo not given),210 to 211
9,CSC1=C(Cl)CC2C3CCC4=CC(=O)C=CC4(C)C3(F)C(O)CC12C (stereo not given),262 to 268
10,COC(=O)c1cc([N+](=O)[O-])ccc1OC(C)=O,70 to 72
11,Cc1c(C(F)(F)F)noc1NS(=O)(=O)c1ccc(-c2ccccc2)cc1,139 to 140
12,COc1ccc(C)cc1NC(=O)Nc1ccc2c(c1)CCN(C(=O)Nc1ccc(OCCO)cc1C(F)(F)F)C2,122 to 124
13,CN(C)CCCCNC(=O)c1cccc(-c2nnc(CSCCOc3ccccc3)o2)c1,38 to 42
14,COc1cc(CON=C(CCC(=O)O)c2ccccc2)ccc1OCc1nc(-c2ccccc2)oc1C,134 to 135
15,CCCC(=O)c1cnc2c(OC)cccc2c1Nc1ccccc1OC,159 to 161
16,CCOC(=O)c1c(CC(=O)O)n(-c2ccc(OC(F)(F)F)cc2)c2ccc(Oc3ccc(CCl)cn3)cc12,168 to 170
17,CCOC(=O)Cc1ccc2c(c1)CC(NC(C)=O)C2 (stereo not given),82 to 84
18,O=C(NCCOc1ccc(CC(Sc2ccccc2)C(=O)O)cc1)c1ccc(-c2ccccn2)cc1 (stereo not given),75 to 77
19,CC(=O)N1N=C(c2ccc(N)cc2)c2cc(Cl)c(Cl)cc2CC1C (stereo not given),242 to 243
20,Cc1cc(-c2cc3nccnc3[nH]2)cn1C,253
21,COc1cccc2c(Nc3ccccc3C)c(C(=O)C3CCCCC3)cnc12,115 to 117
22,CC(C)C(NC(=O)N(C)Cc1ccccn1)C(=O)NC(Cc1ccccc1)C(O)C(O)C(Cc1ccccc1)NC(=O)C(NC(=O)N(C)Cc1ccccn1)C(C)C (stereo not given),159 to 162
23,Cc1ccc(NC(=S)Nc2cccc3c2C2CCCCN2C3=O)nc1 (stereo not given),232
24,CCCCCCCCCCOc1ccc(-c2nc3ccc(C(=O)O)cc3o2)cc1C12CC3CC(CC(C3)C1)C2,200 to 201
25,O=c1c2cc(Oc3ccc(Cl)cc3)ccc2ccn1Cc1cccnc1,116

# Source: a melting point compilation (Tetko et al.; mined from patent text by program, amines drawn as free bases though some values may be those of a salt)
